Results published in patent US10820588B2, “Compositionally and morphologically controlled nanostructures for delivery of micronutrients and suppression of disease in agriculture” (Wisconsin Alumni Research Foundation, priority 2018, dated 2020).

What was measured:
Assay type in all cases: in vivo
[1] = system: Fusarium wilt of watermelon; assay: Field experiment Location 1, Fusarium wilt of watermelon
Description: (§1) Field experiments were conducted to evaluate if successful greenhouse results would translate to a field application. The following six treatments were established at two field locations (Hamden, Conn.—Location 1; and Griswold, Conn.—Location 2) to evaluate their effect on growth and Fusarium wilt of watermelon: CuO nanoparticles, Cu3(PO4)2.3H2O nanosheets, commercial powders of CuO and Cu3(PO4)2, CuSO4, and untreated controls. The commercial powders are not nanostructured as particles within the powders typically have a range of sizes from about 1 μm to 1 mm. Again, the primary purpose of this work was to compare the efficacy of the two nanoscale materials, and the suspensions of CuO and Cu3(PO4)2 commercial powders and the solution of CuSO4 were included only for comparison. It is noted that the CuO and Cu3(PO4)2 materials were used at concentrations where there were solid particles present in the liquid formulations, so those liquid formulations are best characterized as being suspensions with some dissolved ions. By contrast, because of its high solubility, CuSO4 in liquid is completely dissolved and thus is a true solution (only ions present and no remaining solid). […]
(§2) Field microplots were prepared in early June, 2017. […] Total plant biomass and fruit mass were determined at harvest, and select tissues were dried for analysis by ICP mass spectrometry (ICP-MS) as noted below.

[2] = system: Fusarium wilt of watermelon; assay: Field experiment Location 2, Fusarium wilt of watermelon; settings: location 2, 400 mg/L, not statistically significant
Description: as §1, §2

[3] = system: F. oxysporum f. sp. niveum; assay: Greenhouse foliar spray, watermelon with or without Fusarium; settings: disease conditions
Description: Watermelon seeds (Citrullus lanatus Thunb. cv Sugar Baby, Harris Seed Co., Rochester, N.Y.) were germinated in soilless potting mix (ProMix BX, Premier Hort Tech, Quakertown, Pa., USA) and fertilized once after three weeks with 40 mL of Peter's soluble 20-10-20 (N—P—K) fertilizer (R. J. Peters Inc., Allentown, Pa.). When plants reached the 3- to 4-leaf stage, uniform medium size plants were selected for NP exposure. […] For CuO NP, the suspension was sonicated using a probe sonicator for 2 min in an ice bath. […] One to two drops (1 ml/L) of Regulaid® nonionic surfactant were added into the suspensions prior to exposure. Polyvinylidene chloride film (Saran™ wrap) was fitted around the stem to prevent soil exposure to the NP suspensions. Although the primary purpose of this work was to compare different nanoscale materials, bulk CuO and CuSO4 (Sigma, St. Louis, Mo.) were used for additional comparative purposes in the greenhouse experiments. […]
F. oxysporum f. sp. niveum was prepared on Japanese millet, as previously described. […] The progress of disease as represented by the cumulative ratings of disease on replicate plants was plotted over time and the AUDPC was calculated using the trapezoid rule: AUDPC=Σ[Yi±Y(i±1)]/2×(t(i±1)−ti), where Yi=the disease rating at time ti. […]

For O=S(=O)([O-])[O-].[Cu+2] [CuSO4], the “disease result compared with the nanomaterial treatments” value ([1]; field, 400 mg/L) was “statistically equivalent”, the “increase of yield (total wet mass of fruit per plot) over the disease condition” value ([1]; location 1, 400 mg/L) was “no such benefit” and the “increase of fruit yield” value [2] was 38.2%. For the same compound, the “effect on disease-induced decrease in vine length” value [3] was “had no impact”.
